# Results taken from patent US6359112B2 (Fraunhofer-Gesellschaft zur Forferung der angewandten …, priority 1997, dated 2002).
# Like-named read-outs stand apart in the source and are kept apart here. No end group written: not given here.
# Legend:
# [1] = tested on: human astroglioma-cell series (HTB-14)
# Procedure: (§1) FIG. 4 is a graph of MTT reduction as a function of concentration of NFGAIL, SEQ ID NO: 3.
# (§2) Suspensions of the peptide aggregate (produced as described as above) were tested by means of a Rat Insulinoma (RIN5 mf) and a human astroglioma-cell series (HTB-14) for toxicity. The newly dissolved peptides were also tested for cytotoxicity.
# Rat Insulinoma (RIN5 mf) = tested on: Rat Insulinoma (RIN5 mf)
# Procedure: as §1, §2
# [2] = aggregated form (suspension of peptide aggregate)
# [3] = soluble form (newly dissolved peptide)
substance,measurement,setting,value
NFGAIL [NFGAIL],Cytotoxicity,[1]; [2],cyto-toxic
same,Cytotoxicity,[1]; [3],no toxicity
same,Cytotoxicity,Rat Insulinoma (RIN5 mf); [2],cyto-toxic
same,Cytotoxicity,Rat Insulinoma (RIN5 mf); [3],no toxicity
